Like-named read-outs stand apart in the source and are kept apart here.
Key:
[1] = system: E. coli S30 extract (bacterial protein synthesis); test: E. coli S30 extract coupled transcription-translation luciferase assay (inhibition of bacterial protein synthesis); type: biochemical; settings: class by IC50 or % inhibition @ 1 μM, read-out: S30 IC50 (μM/% inhib.)
How it was run: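 Cell-free coupled transcription-translation in E. coli S30 circular-DNA extract, with pBESTluc plasmid as template and complete amino acid mix. Eight 2-fold compound dilutions were incubated with the extract 1 h at 37 °C, chilled, then luciferase luminescence was read. % inhibition was taken relative to no-inhibitor wells; no-DNA wells gave background.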

P. aeruginosa (Pa) = test: Broth microdilution minimum inhibitory concentration (MIC); type: cell-based; settings: Pseudomonas aeruginosa, P. aeruginosa, read-out: Pa MIC + bicarb
How it was run: (§1)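 Following CLSI M07-A9 with minor changes, growth medium was cation-adjusted Mueller-Hinton broth, alone or supplemented with bicarbonate (6.25 or 25 mM) or heat-inactivated human serum up to 50%. Each compound was tested over eight two-fold dilutions against 5×10^4 CFU per well.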

S. aureus (Sa) = test: as above; type: cell-based; settings: Staphylococcus aureus, S. aureus, read-out: Sa + bicarb MIC
How it was run: as §1

E. faecalis (Ef) = test: as above; type: cell-based; settings: Enterococcus faecalis, E. faecalis, read-out: Ef + bicarb MIC
How it was run: as §1

E. coli (Ec) = test: as above; type: cell-based; settings: Escherichia coli, E. coli, read-out: E. coli + bicarb MIC
How it was run: as §1

A. baumannii (Ab) = test: as above; type: cell-based; settings: Acinetobacter baumannii, A. baumannii, read-out: Ab + bicarb MIC
How it was run: as §1

[2] = molecular target: Rabbit Reticulocyte Lysate (eukaryotic protein synthesis); test: Rabbit reticulocyte lysate luciferase assay (inhibition of eukaryotic protein synthesis); type: biochemical; settings: class by IC50 or % inhibition @ 1 μM, read-out: Rabbit reticulocyte IC50 (μM/% inhib.)
How it was run: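 Nuclease-treated rabbit reticulocyte lysate translating luciferase control RNA, with complete amino acids, was incubated at 30° C. for 90 minutes with 2-fold serial compound dilutions. Luminescence was measured after adding luciferase reagent. % inhibition was relative to water controls, with no-RNA wells as background.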

[3] = growth medium supplemented with sodium bicarbonate
[4] = growth medium with sodium bicarbonate

SMILES	IC50 [1]	MIC (P. aeruginosa (Pa); [3])	MIC (S. aureus (Sa); [3])	MIC (E. faecalis (Ef); [3])	MIC (E. coli (Ec); [3])	MIC (A. baumannii (Ab); [3])	IC50 [2]	MIC (P. aeruginosa (Pa); [4])	MIC (S. aureus (Sa); [4])	MIC (E. faecalis (Ef); [4])	MIC (E. coli (Ec); [4])	MIC (A. baumannii (Ab); [4])
CCN(C(C)Cc1ccc(-n2ccc(NC(=O)N3CCN(C(=O)C(C)(C)N)CC3)nc2=O)cc1)C1CCC(CN)CC1 (centres unmarked) [Compound 154]	< 0.5 µM	> 32 µg/mL	< 8 µg/mL	< 8 µg/mL	< 8 µg/mL	> 32 µg/mL	> 1 µM					
CC(Cc1ccc(-n2ccc(NC(=O)N3CCN(C(=O)C(C)(C)N)CC3)nc2=O)cc1)NC[C@H]1C[C@H](N)C1 (some centres unmarked) [Compound 156]	< 0.5 µM	> 32 µg/mL	< 8 µg/mL	8 to 32 µg/mL	< 8 µg/mL	> 32 µg/mL	> 1 µM					
CC(Cc1ccc(-n2ccc(NC(=O)N3CCN(C(=O)C(C)(C)N)CC3)nc2=O)cc1)N(C)C[C@H]1C[C@H](N)C1 (some centres unmarked) [Compound 157]	< 0.5 µM	> 32 µg/mL	< 8 µg/mL	< 8 µg/mL	< 8 µg/mL	> 32 µg/mL	> 1 µM					
CCN(C[C@H]1C[C@H](N)C1)C(C)Cc1ccc(-n2ccc(NC(=O)N3CCN(C(=O)C(C)(C)N)CC3)nc2=O)cc1 (some centres unmarked) [Compound 158]	< 0.5 µM	8 to 32 µg/mL	< 8 µg/mL	< 8 µg/mL	< 8 µg/mL	> 32 µg/mL	> 1 µM					
CC(Cc1ccc(-n2ccc(NC(=O)N3CCN(C(=O)C(C)(C)N)CC3)nc2=O)cc1)NC[C@H]1C[C@@H](N)C1 (some centres unmarked) [Compound 159]	< 0.5 µM	> 32 µg/mL	< 8 µg/mL	8 to 32 µg/mL	< 8 µg/mL	> 32 µg/mL	> 1 µM					
CC(Cc1ccc(-n2ccc(NC(=O)N3CCN(C(=O)C(C)(C)N)CC3)nc2=O)cc1)N(C)C[C@H]1C[C@@H](N)C1 (some centres unmarked) [Compound 160]	< 0.5 µM	> 32 µg/mL	< 8 µg/mL	< 8 µg/mL	< 8 µg/mL	> 32 µg/mL	> 1 µM					
CCN(C[C@H]1C[C@@H](N)C1)C(C)Cc1ccc(-n2ccc(NC(=O)N3CCN(C(=O)C(C)(C)N)CC3)nc2=O)cc1 (some centres unmarked) [Compound 161]	< 0.5 µM	> 32 µg/mL	< 8 µg/mL	< 8 µg/mL	< 8 µg/mL	8 to 32 µg/mL	> 1 µM					
CC(Cc1ccc(-n2ccc(NC(=O)N3CCN(C(=O)C(C)(C)N)CC3)nc2=O)cc1)N[C@H]1CC[C@H](N)C1 (some centres unmarked) [Compound 162]	< 0.5 µM	> 32 µg/mL	< 8 µg/mL	8 to 32 µg/mL	< 8 µg/mL	> 32 µg/mL	> 1 µM					
CC(Cc1ccc(-n2ccc(NC(=O)N3CCN(C(=O)C(C)(C)N)CC3)nc2=O)cc1)N(C)[C@H]1CC[C@H](N)C1 (some centres unmarked) [Compound 163]	> 1 µM						> 1 µM	> 32 µg/mL	8 to 32 µg/mL	> 32 µg/mL	8 to 32 µg/mL	> 32 µg/mL
CCN(C(C)Cc1ccc(-n2ccc(NC(=O)N3CCN(C(=O)C(C)(C)N)CC3)nc2=O)cc1)[C@H]1CC[C@H](N)C1 (some centres unmarked) [Compound 164]	< 0.5 µM						> 1 µM	> 32 µg/mL	< 8 µg/mL	< 8 µg/mL	< 8 µg/mL	8 to 32 µg/mL
CC(Cc1ccc(-n2ccc(NC(=O)N3CCN(C(=O)C(C)(C)N)CC3)nc2=O)cc1)NCC1CNC1 (centres unmarked) [Compound 165]	> 1 µM						> 1 µM	> 32 µg/mL	> 32 µg/mL	> 32 µg/mL	8 to 32 µg/mL	> 32 µg/mL
CC(Cc1ccc(-n2ccc(NC(=O)N3CCN(C(=O)C(C)(C)N)CC3)nc2=O)cc1)N(C)CC1CNC1 (centres unmarked) [Compound 166]	> 1 µM						> 1 µM	> 32 µg/mL	8 to 32 µg/mL	> 32 µg/mL	8 to 32 µg/mL	> 32 µg/mL
CCN(CC1CNC1)C(C)Cc1ccc(-n2ccc(NC(=O)N3CCN(C(=O)C(C)(C)N)CC3)nc2=O)cc1 (centres unmarked) [Compound 167]	> 1 µM						> 1 µM	> 32 µg/mL	8 to 32 µg/mL	8 to 32 µg/mL	< 8 µg/mL	> 32 µg/mL
CC(Cc1ccc(-n2ccc(NC(=O)N3CCN(C(=O)C(C)(C)N)CC3)nc2=O)cc1)N1CCC(N)CC1 (centres unmarked) [Compound 169]	< 0.5 µM						> 1 µM	8 to 32 µg/mL	< 8 µg/mL	< 8 µg/mL	< 8 µg/mL	8 to 32 µg/mL
